Tested on: fibroblastes d'un patient souffrant de CMTX
Assay: Abnormal cell nuclei (DAPI staining, Mitocheck classification) in fibroblasts of a CMTX patient
Format: cell-based, humain
Conditions: fibroblasts of the CMTX1 patient treated with clémastine at 10µmole; untreated patient cells about 30%, healthy individual less than 1% (Figure 1)
Excerpt: Les anomalies des noyaux cellulaires sont étudiées en déposant les fiboblastes sur des lames de microscopie et en colorant les noyaux à de l'aide 4',6-diamidino-2-phénylindole, ou DAPI, les rendant ainsi fluorescents. Les anomalies nucléaires sont classées selon la classification établie par le Mitocheck, à savoir : i) les noyaux mal formés, ii) les noyaux polylobés, iii) les noyaux non séparés et iv) les autres.

CN1CCC[C@@H]1CCO[C@](C)(c1ccccc1)c1ccc(Cl)cc1 [clémastine]
pourcentage des noyaux anormaux: ~5%
